Reference: patent US20230321012A1 (priority 2021, published 2023)
Where “and” joins values, the source holds several entries; their conditions need not be identical. Equal entries are not always repeated.

Experiments:
[1] = MALDI-FTICR imaging quantitation of DFMO in whole-body sections of Th-MYCN mice; type: in vivo, mouse; conditions: for concentration at 96 h: male, Th-MYCN, mouse
Method: Male Th-MYCN mice, approximately 5-6 weeks of age, with spontaneous neuroblastoma tumor development commenced treatment according to Table 6.1 when tumors were approximately 5 mm in size. […] Time point: three treatments, cull 24 hours after last treatment in the morning.
Sample Preparation. Animals were euthanized on the morning of the 4th day, after three days of treatment and shaved, and then the carcasses were frozen. Tissues stored at −80° C. were placed inside the cryostat. The temperature of the cryostat was maintained around −20° C. and −40° C. 20-am tissue sections in the sagittal plane going through the left eye were obtained for each carcass. Tissue sections were mounted directly on indium tin oxide (ITO) slides.
Tissue sections on ITO slides were placed in a desiccator for 15 minutes before matrix deposition. An image of the slides was then acquired with a scanner to synchronize positions of the tissue sections with the target of the laser.
Dilution series of the test items were prepared in water from the stock solutions. […] A spot of pure solvent was added as a negative control. Slides were then placed in a desiccator for 15 minutes before MALDI matrix deposition. The control liver tissue consisted of a liver homogenate spiked with an olanzapine standard at 40 g/g of tissue. Sections of the liver homogenate were prepared and added on each ITO slide in order to monitor the signal of the FTICR through the different acquisitions and thus validate the comparison between slides.
For AMXT 1501, 2,5-dihydroxybenzoic acid (DHB) at 40 mg/ml in 1:1 MeOH/H2O with 1% trifluoroacetic acid (TFA) and 25 nM of ^13C4-AMXT 1501 was sprayed on the samples with an automatic sprayer (TM-Sprayer, HTX-Imaging).
The mass spectrometry imaging (MSI) acquisitions were performed using the parameters in Table 6.2 with a data reduction parameter set at 95%. MSI data were acquired and analyzed with FlexImaging 4.1 (Bruker Daltonics), Data Analysis 4.0 (Bruker Daltonics) and Multimaging™ 1.2.2 (ImaBioTech).
Intensity scales representing the molecular signal were adjusted for each image to discriminate the noise from the molecular signal but also to give the best visualization of the signal across the sections. […] Convolution step was performed on the original images using a normalized uniform kernel, which averages the values around a position. The kernel size was manually optimized for the analysis, minimizing the background noise. Based on the MSI data set on the tissue sections and the dilution series, the quantitation of the test items was performed with the IS approach. A correlation between the calibration curve and the signal obtained on the tissues was performed in order to determine the concentration of the test items per histological structure in g/g of tissue and μM.

[2] = Water solubility, bioavailability and Biopharmaceutics Classification System class; type: physicochemical
Text: Interim data for the pharmacokinetic (PK) behavior of both agents in human subjects has been generated.

[3] = COMBO (1% DFMO + AMXT 1501 2.5 mg/kg SC), mice 284, 286, 96 h, 2.5 mg/kg
[4] = DFMO alone 1% in drinking water, mice 049, 082, 96 h

NCCCC(N)(C(=O)O)C(F)F (stereo not shown) [DFMO, difluoromethylornithine]
DFMO in Intestine wall ([1]; COMBO (1% DFMO + AMXT 1501 2.5 mg/kg SC), mice 284, 286, 96 h): 6156 µg/g
DFMO in Cardiac blood [1, 3]: 20.9 µg/g
DFMO in Eye [1, 3]: 49.3 µg/g
DFMO in Intestine contents [1, 3]: 8702 µg/g and 11264 µg/g
DFMO in Liver [1, 3]: 33.0 µg/g
DFMO in Lung [1, 3]: 43.1 µg/g
DFMO in Myocardium [1, 3]: 26.2 µg/g
DFMO in Cardiac blood [1, 4]: 16.5 µg/g
DFMO in Eye [1, 4]: 28.8 µg/g
DFMO in Intestine contents [1, 4]: 3487 µg/g and 2267 µg/g
DFMO in Kidney [1, 4]: 133 µg/g
DFMO in Liver [1, 4]: 28.5 µg/g
DFMO in Lung [1, 4]: 24.8 µg/g
DFMO concentration in tumor ([1]; DFMO only treatment group): 35 μg/g and 192 μM
tumor DFMO levels ([1]; MYCN mice after overnight drinking of 1% DFMO orally): 165 to 192 µM
DFMO concentration in tumor ([1]; combination treatment group): 30 μg/g and 165 μM
tumor DFMO concentration versus Ki ([1]; combination treatment group): 4.2 times
concentration at 96 h ([1]; brown fat, oral, 40 mg/day, DFMO in brown fat): ~25000 ng/g
concentration at 96 h ([1]; brown fat, oral, 1 % in drinking water, DFMO in Brown fat, DFMO alone 1% in drinking water, mice 049, 082, 96 h): 22600 ng/g
concentration at 96 h ([1]; brown fat, sc, 2.5 mg/kg, DFMO in Brown fat, COMBO (1% DFMO + AMXT 1501 2.5 mg/kg SC), mice 284, 286, 96 h): 27500 ng/g
concentration at 96 h ([1]; cardiac blood, oral, 40 mg/day, DFMO in cardiac blood, combination and single administration regimens): 16000 to 35000 ng/g
concentration at 96 h ([1]; cardiac blood, oral, 1 % in drinking water, DFMO in Cardiac blood, DFMO alone 1% in drinking water, mice 049, 082, 96 h): 27800 ng/g
concentration at 96 h ([1]; cardiac blood, sc, 2.5 mg/kg, DFMO in Cardiac blood, COMBO (1% DFMO + AMXT 1501 2.5 mg/kg SC), mice 284, 286, 96 h): 35400 ng/g
concentration at 96 h ([1]; eye, oral, 1 % in drinking water, DFMO in Eye, DFMO alone 1% in drinking water, mice 049, 082, 96 h): 33000 ng/g
concentration at 96 h ([1]; eye, sc, 2.5 mg/kg, DFMO in Eye, COMBO (1% DFMO + AMXT 1501 2.5 mg/kg SC), mice 284, 286, 96 h): 92100 ng/g
concentration at 96 h ([1]; intestine wall, oral, 1 % in drinking water, DFMO in Intestine wall, DFMO alone 1% in drinking water, mice 049, 082, 96 h): 803000 ng/g
concentration at 96 h ([1]; kidney, oral, 1 % in drinking water, DFMO in Kidney, DFMO alone 1% in drinking water, mice 049, 082, 96 h): 77600 ng/g
concentration at 96 h ([1]; liver, oral, 1 % in drinking water, DFMO in Liver, DFMO alone 1% in drinking water, mice 049, 082, 96 h): 36100 ng/g
concentration at 96 h ([1]; liver, sc, 2.5 mg/kg, DFMO in Liver, COMBO (1% DFMO + AMXT 1501 2.5 mg/kg SC), mice 284, 286, 96 h): 44700 ng/g
concentration at 96 h ([1]; lung, oral, 1 % in drinking water, DFMO in Lung, DFMO alone 1% in drinking water, mice 049, 082, 96 h): 48700 ng/g
concentration at 96 h ([1]; lung, sc, 2.5 mg/kg, DFMO in Lung, COMBO (1% DFMO + AMXT 1501 2.5 mg/kg SC), mice 284, 286, 96 h): 64700 ng/g
concentration at 96 h ([1]; myocardium, oral, 1 % in drinking water, DFMO in Myocardium, DFMO alone 1% in drinking water, mice 049, 082, 96 h): 10000 ng/g
concentration at 96 h ([1]; myocardium, sc, 2.5 mg/kg, DFMO in Myocardium, COMBO (1% DFMO + AMXT 1501 2.5 mg/kg SC), mice 284, 286, 96 h): 28500 ng/g
concentration at 96 h ([1]; oral, 40 mg/day, DFMO in eye, kidney, liver, lung, testis and thymus, range from testis to eye, both treatments): 14000 to 92000 ng/g
concentration at 96 h ([1]; pancreas, sc, 2.5 mg/kg, DFMO in Pancreas, COMBO (1% DFMO + AMXT 1501 2.5 mg/kg SC), mice 284, 286, 96 h): 83000 ng/g
concentration at 96 h ([1]; spleen, sc, 2.5 mg/kg, DFMO in Spleen, COMBO (1% DFMO + AMXT 1501 2.5 mg/kg SC), mice 284, 286, 96 h): 83600 ng/g
concentration at 96 h ([1]; stomach contents, sc, 2.5 mg/kg, DFMO in Stomach contents, COMBO (1% DFMO + AMXT 1501 2.5 mg/kg SC), mice 284, 286, 96 h): 111000 ng/g
concentration at 96 h ([1]; stomach wall, oral, 1 % in drinking water, DFMO in Stomach wall, DFMO alone 1% in drinking water, mice 049, 082, 96 h): 216000 ng/g
concentration at 96 h ([1]; stomach wall, sc, 2.5 mg/kg, DFMO in Stomach wall, COMBO (1% DFMO + AMXT 1501 2.5 mg/kg SC), mice 284, 286, 96 h): 44500 ng/g
concentration at 96 h ([1]; testis, oral, 1 % in drinking water, DFMO in Testis, DFMO alone 1% in drinking water, mice 049, 082, 96 h): 14500 ng/g
concentration at 96 h ([1]; testis, sc, 2.5 mg/kg, DFMO in Testis, COMBO (1% DFMO + AMXT 1501 2.5 mg/kg SC), mice 284, 286, 96 h): 48200 ng/g
concentration at 96 h ([1]; thymus, oral, 1 % in drinking water, DFMO in Thymus, DFMO alone 1% in drinking water, mice 049, 082, 96 h): 20900 ng/g
concentration at 96 h ([1]; thymus, sc, 2.5 mg/kg, DFMO in Thymus, COMBO (1% DFMO + AMXT 1501 2.5 mg/kg SC), mice 284, 286, 96 h): 26700 ng/g
concentration at 96 h ([1]; tumor, oral, 1 % in drinking water, DFMO in Tumor, DFMO alone 1% in drinking water, mice 049, 082, 96 h): 35100 ng/g
concentration at 96 h ([1]; tumor, sc, 2.5 mg/kg, DFMO in Tumor, COMBO (1% DFMO + AMXT 1501 2.5 mg/kg SC), mice 284, 286, 96 h): 30400 ng/g
water solubility [2]: high water solubility
